Measurements taken from ChEMBL document CHEMBL4002626, “Identification of a selective inhibitor of transforming growth factor β-activated kinase 1 by biosensor-based screening of focused libraries” (Bioorg Med Chem Lett, 2017).
Blank lines part the entries; values can stand above or below the molecule they belong to. Activity calls are given as the source filed them. No cut-off for these calls is given here.

Assays:
[1] = target: T1, Mitogen-activated protein kinase kinase kinase 7 (Homo sapiens, UniProt O43318); test: Binding affinity to recombinant human biotinylated N-terminal GST-tagged autophosphorylated TAK1 (1 to 303 residues) fused with TAB1 (437 to 504 residues) expressed in baculovirus infected sf9 cells by SPR assay
T1 sequence (O43318 whole entry): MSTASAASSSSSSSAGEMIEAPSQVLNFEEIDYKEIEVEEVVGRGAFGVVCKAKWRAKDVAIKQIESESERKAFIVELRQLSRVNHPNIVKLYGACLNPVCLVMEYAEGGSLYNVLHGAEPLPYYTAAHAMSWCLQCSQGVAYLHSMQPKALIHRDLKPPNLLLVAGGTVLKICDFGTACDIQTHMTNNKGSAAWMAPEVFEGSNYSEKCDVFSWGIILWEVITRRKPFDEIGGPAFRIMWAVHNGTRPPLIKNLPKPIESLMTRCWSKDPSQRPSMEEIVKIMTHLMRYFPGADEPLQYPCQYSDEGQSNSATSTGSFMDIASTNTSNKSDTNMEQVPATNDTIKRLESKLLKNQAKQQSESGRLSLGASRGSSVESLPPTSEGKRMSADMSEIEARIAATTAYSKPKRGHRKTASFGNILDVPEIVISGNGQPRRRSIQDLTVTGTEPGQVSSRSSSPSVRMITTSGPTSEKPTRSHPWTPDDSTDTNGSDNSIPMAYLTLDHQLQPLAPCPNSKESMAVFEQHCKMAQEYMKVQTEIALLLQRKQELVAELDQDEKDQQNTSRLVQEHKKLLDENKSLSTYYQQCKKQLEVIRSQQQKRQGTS

[2] = target: T1, Mitogen-activated protein kinase kinase kinase 7; test: Binding affinity to recombinant human biotinylated N-terminal GST-tagged non-autophosphorylated TAK1 (1 to 303 residues) fused with TAB1 (437 to 504 residues) expressed in baculovirus infected sf9 cells by SPR assay
[3] = target: Fibroblast growth factor receptor 2 (Homo sapiens, UniProt P21802); test: Inhibition of recombinant human N-terminal GST-tagged FGFR2 cytoplasmic domain (399 to 821 residues) expressed in baculovirus expression system
[4] = target: Insulin-like growth factor 1 receptor (Homo sapiens, UniProt P08069); test: Inhibition of recombinant human N-terminal GST-tagged IGF1R cytoplasmic domain (959 to 1367 residues) expressed in baculovirus expression system
[5] = Inhibition of PDGFR (unknown origin); set-up: species or system Homo sapiens
[6] = target: Tyrosine-protein kinase receptor UFO (Homo sapiens, UniProt P30530); test: Inhibition of recombinant human N-terminal GST-tagged AXL cytoplasmic domain (464 to 885 residues) expressed in baculovirus expression system
[7] = target: Tyrosine-protein kinase Fyn (Homo sapiens, UniProt P06241); test: Inhibition of FYN (unknown origin)
[8] = target: RAC-alpha serine/threonine-protein kinase (Homo sapiens, UniProt P31749); test: Inhibition of recombinant human N-terminal GST-tagged AKT1 catalytic domain (104 to 480 residues) expressed in baculovirus expression system
Insulin receptor = Insulin receptor (Homo sapiens, UniProt P06213); test: Inhibition of recombinant human N-terminal GST-tagged INSR cytoplasmic domain (1005 to 1310 residues) expressed in baculovirus expression system
[9] = target: Vascular endothelial growth factor receptor 2 (Homo sapiens, UniProt P35968); test: Inhibition of recombinant human N-terminal GST-tagged KDR cytoplasmic domain (790 to 1356 residues) expressed in baculovirus expression system
Ephrin type-A receptor 2 = Ephrin type-A receptor 2 (Homo sapiens, UniProt P29317); test: Inhibition of recombinant human N-terminal GST-tagged EPHA2 cytoplasmic domain (572 to 976 residues) expressed in baculovirus expression system
[10] = target: Tyrosine-protein kinase ABL1 (Homo sapiens, UniProt P00519); test: Inhibition of recombinant full length human N-terminal GST-tagged ABL (2 to 1130 residues) expressed in baculovirus expression system
[11] = target: Epithelial discoidin domain-containing receptor 1 (Homo sapiens, UniProt Q08345); test: Inhibition of recombinant human N-terminal GST-tagged DDR1 cytoplasmic domain (444 to 876 residues) expressed in baculovirus expression system
[12] = target: RAF proto-oncogene serine/threonine-protein kinase (Homo sapiens, UniProt P04049); test: Inhibition of recombinant human N-terminal GST-tagged RAF1 catalytic domain (306 to 648 residues) expressed in baculovirus expression system
[13] = target: Cyclin-dependent kinase 1 (Homo sapiens, UniProt P06493); test: Inhibition of CDK1 (unknown origin)
[14] = target: Macrophage-stimulating protein receptor (Homo sapiens, UniProt Q04912); test: Inhibition of recombinant human N-terminal GST-tagged RON cytoplasmic domain (979 to 1400 residues) expressed in baculovirus expression system
[15] = target: Hepatocyte growth factor receptor (Homo sapiens, UniProt P08581); test: Inhibition of recombinant human N-terminal GST-tagged MET cytoplasmic domain (956 to 1390 residues) expressed in baculovirus expression system
[16] = target: T2, Protein kinase C beta type (Homo sapiens, UniProt P05771); test: Inhibition of recombinant full length human N-terminal GST-tagged PKCbeta1 (1 to 671 residues) expressed in baculovirus expression system
[17] = target: Dual specificity mitogen-activated protein kinase kinase 1 (Homo sapiens, UniProt Q02750); test: Inhibition of MEK1 (unknown origin)
[18] = target: Protein-tyrosine kinase 6 (Homo sapiens, UniProt Q13882); test: Inhibition of recombinant full length human N-terminal GST-tagged BRK (2 to 451 residues) expressed in baculovirus expression system
[19] = target: Protein kinase C alpha type (Homo sapiens, UniProt P17252); test: Inhibition of recombinant full length human N-terminal GST-tagged PKCalpha (1 to 351 residues) expressed in baculovirus expression system
[20] = target: Tyrosine-protein kinase Lyn (Homo sapiens, UniProt P07948); test: Inhibition of LYN (unknown origin)
[21] = target: Leukocyte tyrosine kinase receptor (Homo sapiens, UniProt P29376); test: Inhibition of recombinant human N-terminal GST-tagged LTK cytoplasmic domain (498 to 796 residues) expressed in baculovirus expression system
[22] = target: BMP-2-inducible protein kinase (Homo sapiens) (UniProt Q9NSY1); test: Inhibition of human BIKE (S34 to N329 residues) expressed in bacterial expression system at 1 uM by KINOMEscan assay
[23] = target: T2, Protein kinase C beta type; test: Inhibition of recombinant full length human N-terminal GST-tagged PKCbeta2 (1 to 673 residues) expressed in baculovirus expression system
[24] = target: Proto-oncogene tyrosine-protein kinase Src (Homo sapiens, UniProt P12931); test: Inhibition of recombinant full length human N-terminal GST-tagged SRC (1 to 536 residues) expressed in baculovirus expression system
[25] = target: T3, Mitogen-activated protein kinase kinase kinase 7 (Homo sapiens) (UniProt O43318); test: Binding affinity to recombinant human biotinylated N-terminal GST-tagged TAK1 (1 to 303 residues) fused with TAB1 (437 to 504 residues) expressed in baculovirus infected sf9 cells at 1 uM in presence of ATP by SPR assay
T3 sequence (whole entry): T1 sequence (O43318 whole entry)

[26] = target: Cyclin-dependent kinase 2 (Homo sapiens, UniProt P24941); test: Inhibition of CDK2 (unknown origin)
[27] = target: Epidermal growth factor receptor (Homo sapiens, UniProt P00533); test: Inhibition of recombinant human N-terminal GST-tagged EGFR cytoplasmic domain (669 to 1210 residues) expressed in baculovirus expression system
[28] = target: Tyrosine-protein kinase Lck (Homo sapiens, UniProt P06239); test: Inhibition of recombinant full length human N-terminal GST-tagged LCK (1 to 509 residues) expressed in baculovirus expression system
[29] = Inhibition of PKA (unknown origin); set-up: species or system Homo sapiens
[30] = target: Mast/stem cell growth factor receptor Kit (Homo sapiens, UniProt P10721); test: Inhibition of recombinant human N-terminal GST-tagged KIT cytoplasmic domain (544 to 976 residues) expressed in baculovirus expression system
[31] = target: Mitogen-activated protein kinase 14 (Homo sapiens, UniProt Q16539); test: Inhibition of recombinant human N-terminal GST-tagged p38-alpha (9 to 352 residues) expressed in Escherichia coli expression system
[32] = target: Protein kinase C zeta type (Homo sapiens, UniProt Q05513); test: Inhibition of recombinant full length human N-terminal GST-tagged PKCzeta (1 to 592 residues) expressed in baculovirus expression system
[33] = target: Receptor-type tyrosine-protein kinase FLT3 (Homo sapiens, UniProt P36888); test: Inhibition of recombinant human N-terminal GST-tagged FLT3 cytoplasmic domain (564 to 993 residues) expressed in baculovirus expression system
Aurora kinase A = Aurora kinase A (Homo sapiens, UniProt O14965); test: Inhibition of recombinant full length human N-terminal GST-tagged Aurora kinase-A (1 to 403 residues) expressed in baculovirus expression system
[34] = target: Tyrosine-protein kinase Yes (Homo sapiens, UniProt P07947); test: Inhibition of recombinant full length human N-terminal GST-tagged YES (1 to 543 residues) expressed in baculovirus expression system
[35] = Solubility of the compound in 50 mM phosphate buffer at pH 6.5 after 24 hrs by HPLC-UV spectrophotometric assay; type: physicochemical
Focal adhesion kinase 1 = Focal adhesion kinase 1 (Homo sapiens, UniProt Q05397); test: Inhibition of recombinant human N-terminal GST-tagged FAK cytoplasmic domain (376 to 1052 residues) expressed in baculovirus expression system
[36] = Solubility of the compound in fasted state simulated intestinal fluid at pH 6.5 after 24 hrs by HPLC-UV spectrophotometric assay; type: physicochemical
[37] = target: T3, Mitogen-activated protein kinase kinase kinase 7 (Homo sapiens); test: Binding affinity to recombinant human biotinylated N-terminal GST-tagged TAK1 (1 to 303 residues) fused with TAB1 (437 to 504 residues) expressed in baculovirus infected sf9 cells at 250 uM in presence of adenosine by SPR assay
[38] = target: T3, Mitogen-activated protein kinase kinase kinase 7 (Homo sapiens); test: Binding affinity to TAK1 (unknown origin) at 5 uM using spin-labeled probe by 1H NMR method

T2 sequence (P05771 whole entry, the tested form may be a part): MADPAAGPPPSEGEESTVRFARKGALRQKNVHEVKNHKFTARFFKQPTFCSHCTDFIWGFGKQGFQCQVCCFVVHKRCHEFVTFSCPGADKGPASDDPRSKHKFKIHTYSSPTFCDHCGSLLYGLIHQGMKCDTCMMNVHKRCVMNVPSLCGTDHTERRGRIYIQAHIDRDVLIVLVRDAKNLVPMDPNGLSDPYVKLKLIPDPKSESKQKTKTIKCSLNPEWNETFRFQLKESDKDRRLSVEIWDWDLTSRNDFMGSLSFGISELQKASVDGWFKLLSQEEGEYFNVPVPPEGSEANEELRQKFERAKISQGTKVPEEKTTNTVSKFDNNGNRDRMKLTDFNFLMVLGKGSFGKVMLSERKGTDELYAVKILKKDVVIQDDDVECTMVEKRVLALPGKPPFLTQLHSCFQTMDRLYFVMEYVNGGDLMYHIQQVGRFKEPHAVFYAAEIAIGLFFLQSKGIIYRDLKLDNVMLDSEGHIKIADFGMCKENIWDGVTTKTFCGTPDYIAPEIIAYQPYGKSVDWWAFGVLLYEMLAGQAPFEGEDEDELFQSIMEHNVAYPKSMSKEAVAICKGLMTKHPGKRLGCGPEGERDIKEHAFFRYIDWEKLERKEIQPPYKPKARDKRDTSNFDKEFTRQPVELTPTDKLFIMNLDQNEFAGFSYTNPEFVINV
Chain of Insulin receptor (P06213 28-758 limits assumed): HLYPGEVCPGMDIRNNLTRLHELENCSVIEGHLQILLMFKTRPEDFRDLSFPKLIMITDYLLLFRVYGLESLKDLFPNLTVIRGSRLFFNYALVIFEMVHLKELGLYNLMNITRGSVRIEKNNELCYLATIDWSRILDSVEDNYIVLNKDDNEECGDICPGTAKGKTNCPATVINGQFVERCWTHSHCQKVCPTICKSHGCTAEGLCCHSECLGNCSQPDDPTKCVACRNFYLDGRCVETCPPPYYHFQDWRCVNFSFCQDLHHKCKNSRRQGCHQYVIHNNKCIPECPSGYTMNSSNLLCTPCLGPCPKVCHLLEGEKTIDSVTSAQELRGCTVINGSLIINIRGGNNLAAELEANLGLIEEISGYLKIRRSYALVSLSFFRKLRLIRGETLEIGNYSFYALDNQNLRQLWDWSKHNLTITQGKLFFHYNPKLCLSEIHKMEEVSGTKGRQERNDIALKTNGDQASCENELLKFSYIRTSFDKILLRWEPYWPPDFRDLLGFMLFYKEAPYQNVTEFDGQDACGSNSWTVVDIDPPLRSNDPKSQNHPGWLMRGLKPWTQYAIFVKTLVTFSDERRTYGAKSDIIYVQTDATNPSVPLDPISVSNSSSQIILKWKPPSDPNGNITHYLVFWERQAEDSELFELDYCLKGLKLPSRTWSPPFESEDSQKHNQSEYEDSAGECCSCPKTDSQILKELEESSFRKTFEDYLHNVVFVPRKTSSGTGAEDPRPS
Chain of Insulin receptor (P06213 763-1382 limits assumed): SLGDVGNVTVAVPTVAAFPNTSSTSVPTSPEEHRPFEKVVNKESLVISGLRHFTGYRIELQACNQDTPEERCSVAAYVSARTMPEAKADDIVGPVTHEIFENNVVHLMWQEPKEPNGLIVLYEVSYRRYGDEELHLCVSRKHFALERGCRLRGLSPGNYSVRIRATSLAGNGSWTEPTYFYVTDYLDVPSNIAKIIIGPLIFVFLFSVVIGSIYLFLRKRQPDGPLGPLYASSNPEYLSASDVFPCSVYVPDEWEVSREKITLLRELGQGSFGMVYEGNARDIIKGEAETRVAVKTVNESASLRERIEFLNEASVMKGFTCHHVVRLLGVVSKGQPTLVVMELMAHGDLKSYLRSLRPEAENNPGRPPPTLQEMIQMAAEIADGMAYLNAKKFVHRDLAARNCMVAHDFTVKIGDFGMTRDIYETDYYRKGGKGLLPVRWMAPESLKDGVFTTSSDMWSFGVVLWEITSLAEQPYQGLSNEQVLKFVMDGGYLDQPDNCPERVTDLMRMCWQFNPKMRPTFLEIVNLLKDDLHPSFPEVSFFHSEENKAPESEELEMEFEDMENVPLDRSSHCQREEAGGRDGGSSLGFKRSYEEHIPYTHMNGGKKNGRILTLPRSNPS
Chain of Fibroblast growth factor receptor 2 (P21802 whole entry, the tested form may be a part): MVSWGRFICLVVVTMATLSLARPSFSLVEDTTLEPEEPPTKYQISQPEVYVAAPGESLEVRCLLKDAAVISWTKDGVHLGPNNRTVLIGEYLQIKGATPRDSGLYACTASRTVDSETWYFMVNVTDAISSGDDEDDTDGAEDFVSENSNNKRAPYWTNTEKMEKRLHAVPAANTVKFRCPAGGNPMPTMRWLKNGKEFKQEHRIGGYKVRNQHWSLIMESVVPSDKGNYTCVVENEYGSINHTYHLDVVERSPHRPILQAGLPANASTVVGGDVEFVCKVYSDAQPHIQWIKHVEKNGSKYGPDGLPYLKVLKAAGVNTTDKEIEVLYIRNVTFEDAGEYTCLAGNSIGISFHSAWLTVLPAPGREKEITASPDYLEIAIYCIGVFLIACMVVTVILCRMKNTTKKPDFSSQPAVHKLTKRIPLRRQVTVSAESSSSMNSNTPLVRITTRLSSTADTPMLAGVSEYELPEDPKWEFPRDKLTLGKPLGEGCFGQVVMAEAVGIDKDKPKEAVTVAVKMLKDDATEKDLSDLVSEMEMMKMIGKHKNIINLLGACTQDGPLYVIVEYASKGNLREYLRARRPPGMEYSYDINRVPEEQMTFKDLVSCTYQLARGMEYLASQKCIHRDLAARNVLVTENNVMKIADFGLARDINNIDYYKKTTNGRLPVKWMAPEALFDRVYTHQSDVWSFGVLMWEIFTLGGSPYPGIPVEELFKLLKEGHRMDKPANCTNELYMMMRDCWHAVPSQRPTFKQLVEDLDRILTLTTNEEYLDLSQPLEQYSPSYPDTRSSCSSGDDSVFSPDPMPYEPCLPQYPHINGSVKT
Chain of Receptor-type tyrosine-protein kinase FLT3 (P36888 whole entry, the tested form may be a part): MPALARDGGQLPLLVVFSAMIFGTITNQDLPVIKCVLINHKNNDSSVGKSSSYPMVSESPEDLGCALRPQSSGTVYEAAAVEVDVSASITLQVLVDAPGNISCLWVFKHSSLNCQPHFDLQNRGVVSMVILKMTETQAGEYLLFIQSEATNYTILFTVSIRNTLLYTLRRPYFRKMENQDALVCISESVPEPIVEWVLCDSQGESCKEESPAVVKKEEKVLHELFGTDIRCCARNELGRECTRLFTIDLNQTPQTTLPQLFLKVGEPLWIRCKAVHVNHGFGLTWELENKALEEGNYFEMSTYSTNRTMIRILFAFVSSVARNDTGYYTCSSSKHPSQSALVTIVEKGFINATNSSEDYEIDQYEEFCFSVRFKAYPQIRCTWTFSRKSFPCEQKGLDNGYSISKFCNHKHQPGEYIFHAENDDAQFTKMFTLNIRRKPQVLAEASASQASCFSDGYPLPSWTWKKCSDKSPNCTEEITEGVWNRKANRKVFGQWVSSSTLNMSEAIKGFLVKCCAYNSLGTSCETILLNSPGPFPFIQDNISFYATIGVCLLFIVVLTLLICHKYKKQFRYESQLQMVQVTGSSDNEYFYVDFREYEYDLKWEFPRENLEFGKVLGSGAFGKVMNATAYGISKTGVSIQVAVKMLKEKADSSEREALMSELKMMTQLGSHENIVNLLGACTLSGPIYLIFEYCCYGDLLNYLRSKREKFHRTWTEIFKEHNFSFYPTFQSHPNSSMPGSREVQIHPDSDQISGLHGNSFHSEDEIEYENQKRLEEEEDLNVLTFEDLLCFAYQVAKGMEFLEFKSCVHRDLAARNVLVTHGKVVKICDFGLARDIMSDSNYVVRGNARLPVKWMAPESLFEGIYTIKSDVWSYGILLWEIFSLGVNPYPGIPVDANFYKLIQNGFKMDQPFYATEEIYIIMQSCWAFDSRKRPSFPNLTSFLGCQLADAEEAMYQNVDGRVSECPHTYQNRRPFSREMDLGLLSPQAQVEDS
Chain of Tyrosine-protein kinase receptor UFO (P30530 whole entry, the tested form may be a part): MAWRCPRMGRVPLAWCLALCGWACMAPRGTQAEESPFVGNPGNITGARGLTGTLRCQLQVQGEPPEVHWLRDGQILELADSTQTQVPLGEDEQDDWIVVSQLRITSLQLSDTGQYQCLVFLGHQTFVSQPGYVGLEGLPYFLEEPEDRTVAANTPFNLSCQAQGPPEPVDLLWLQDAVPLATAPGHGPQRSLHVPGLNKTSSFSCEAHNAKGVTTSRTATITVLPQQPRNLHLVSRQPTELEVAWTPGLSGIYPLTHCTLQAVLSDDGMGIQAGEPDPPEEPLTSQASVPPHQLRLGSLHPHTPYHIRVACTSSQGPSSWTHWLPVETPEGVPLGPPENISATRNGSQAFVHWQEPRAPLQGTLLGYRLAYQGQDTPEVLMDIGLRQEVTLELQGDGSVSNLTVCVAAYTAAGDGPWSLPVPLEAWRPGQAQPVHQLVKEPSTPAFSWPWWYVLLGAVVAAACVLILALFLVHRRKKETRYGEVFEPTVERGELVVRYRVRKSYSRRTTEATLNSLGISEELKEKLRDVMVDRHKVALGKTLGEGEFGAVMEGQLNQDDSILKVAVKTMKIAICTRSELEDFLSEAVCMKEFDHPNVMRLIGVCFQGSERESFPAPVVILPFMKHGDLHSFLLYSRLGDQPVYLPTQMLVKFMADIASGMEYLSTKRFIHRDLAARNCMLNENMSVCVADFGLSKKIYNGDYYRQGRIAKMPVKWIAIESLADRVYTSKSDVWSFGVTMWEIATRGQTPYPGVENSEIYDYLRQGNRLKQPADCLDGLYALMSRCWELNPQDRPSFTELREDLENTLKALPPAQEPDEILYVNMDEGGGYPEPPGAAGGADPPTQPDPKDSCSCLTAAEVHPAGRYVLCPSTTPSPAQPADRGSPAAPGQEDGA
Chain of Cyclin-dependent kinase 1 (P06493 whole entry, the tested form may be a part): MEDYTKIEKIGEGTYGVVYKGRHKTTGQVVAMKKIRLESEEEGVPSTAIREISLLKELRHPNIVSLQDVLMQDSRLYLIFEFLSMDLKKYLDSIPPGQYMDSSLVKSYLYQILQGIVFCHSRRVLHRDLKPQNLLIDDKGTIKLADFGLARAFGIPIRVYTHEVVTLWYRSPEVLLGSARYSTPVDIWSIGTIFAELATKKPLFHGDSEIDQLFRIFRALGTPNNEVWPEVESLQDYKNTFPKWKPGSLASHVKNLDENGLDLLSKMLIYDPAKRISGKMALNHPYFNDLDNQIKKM

- Kd [1]: 4.4 µM
- Kd [2]: 34 µM
Structure (SMILES): Nc1ncnc2c1ncn2[C@@H]1O[C@H](CO)[C@@H](O)[C@H]1O [ADENOSINE]

- Kd [1]: 0.012 µM
Structure (SMILES): CN1CCN(c2cccc3cc(NC(=O)Nc4ccc(Oc5ccnc6[nH]ccc56)cc4)ccc23)CC1

- IC50 [3]: > 50 µM
- IC50 [4]: > 50 µM
- IC50 [5]: > 50 µM
- IC50 [6]: > 50 µM
- IC50 [7]: > 50 µM
- IC50 [8]: > 50 µM
- IC50 (Insulin receptor): > 50 µM
- IC50 [9]: > 50 µM
- IC50 (Ephrin type-A receptor 2): > 50 µM
- IC50 [10]: > 50 µM
- IC50 [11]: > 50 µM
- Kd [1]: 0.059 µM
- IC50 [12]: > 50 µM
- IC50 [13]: > 50 µM
- IC50 [14]: > 50 µM
- IC50 [15]: > 50 µM
- IC50 [16]: > 50 µM
- IC50 [17]: > 50 µM
- IC50 [18]: > 50 µM
- IC50 [19]: > 50 µM
- IC50 [20]: > 50 µM
- IC50 [21]: > 50 µM
- inhibition [22]: Active
- IC50 [23]: > 50 µM
- IC50 [24]: > 50 µM
- Activity [25]: Active
- IC50 [26]: > 50 µM
- IC50 [27]: > 50 µM
- IC50 [28]: > 50 µM
- IC50 [29]: > 50 µM
- IC50 [30]: > 50 µM
- IC50 [31]: > 50 µM
- IC50 [32]: > 50 µM
- IC50 [33]: 0.056 µM
- IC50 (Aurora kinase A): 42 µM
- Kd [2]: 0.15 µM
- IC50 [34]: > 50 µM
- solubility at 24 h [35]: < 3 µg/mL
- IC50 (Focal adhesion kinase 1): > 50 µM
- solubility at 24 h [36]: < 3 µg/mL
Structure (SMILES): COc1cc2ncccc2cc1NC(=O)c1csc2cncnc12

- Activity [37]: Active
- Activity [38]: Active
Structure (SMILES): Oc1cnnc(SCc2ccc(Br)cc2)n1

- Kd [1]: 4.1 µM
- Kd [2]: 63 µM
Structure (SMILES): Nc1ncnc2c1ncn2[C@@H]1O[C@H](COP(=O)(O)OP(=O)(O)O)[C@@H](O)[C@H]1O [ADENOSINE DIPHOSPHATE]

Structure (SMILES): Nc1ncnc2c1ncn2[C@@H]1O[C@H](COP(=O)(O)OP(=O)(O)OP(=O)(O)O)[C@@H](O)[C@H]1O [ADENOSINE TRIPHOSPHATE]
- Kd [1]: 2.8 µM

- Kd [1]: 120 µM
- Kd [2]: 370 µM
Structure (SMILES): Nc1ncnc2c1ncn2[C@@H]1O[C@H](COP(=O)(O)O)[C@@H](O)[C@H]1O [ADENOSINE PHOSPHATE]
